Measurements taken from patent US7317007B2, “Benzothiazole derivatives with activity as adenosine receptor ligands” (Hoffmann-La Roche Inc., priority 2000, dated 2008).

What was measured:
[1] = target: T1, human adenosine A2A receptor (Homo sapiens, UniProt P29274); assay: [3H]-SCH-58261 binding assay at the human adenosine A2A receptor; details: read-out: pKi value (converted)
T1 construct: expressed in transfected cells; host or cells: CHO cells, Semliki Forest virus expression system; washed membrane pellet used
Experimental: Human Adenosine A2A Receptor
The human adenosine A2A receptor was recombinantly expressed in chinese hamster ovary (CHO) cells using the semliki forest virus expression system. Cells were harvested, washed twice by centrifugation, homogenised and again washed by centrifugation. The final washed membrane pellet was suspended in a Tris (50 mM) buffer containing 120 mM NaCl, 5 mM KCl, 2 mM CaCl2 and 10 mM MgCl2 (pH 7.4) (buffer A). The [^3H]-SCH-58261 (Dionisotti et al., 1997, Br J Pharmacol 121, 353; 1 nM) binding assay was carried out in 96-well plates in the presence of 2.5 μg of membrane protein, 0.5 mg of Ysi-poly-1-lysine SPA beads and 0.1 U adenosine deaminase in a final volume of 200 μl of buffer A. Non-specific binding was defined using xanthine amine congener (XAC; 2 μM). Compounds were tested at 10 concentrations from 10 μM-0.3 nM. All assays were conducted in duplicate and repeated at least two times. Assay plates were incubated for 1 hour at room temperature before centrifugation and then bound ligand determined using a Packard Topcount scintillation counter. IC50 values were calculated using a non-linear curve fitting program and Ki values calculated using the Cheng-Prussoff equation.

T1 sequence (P29274 whole entry): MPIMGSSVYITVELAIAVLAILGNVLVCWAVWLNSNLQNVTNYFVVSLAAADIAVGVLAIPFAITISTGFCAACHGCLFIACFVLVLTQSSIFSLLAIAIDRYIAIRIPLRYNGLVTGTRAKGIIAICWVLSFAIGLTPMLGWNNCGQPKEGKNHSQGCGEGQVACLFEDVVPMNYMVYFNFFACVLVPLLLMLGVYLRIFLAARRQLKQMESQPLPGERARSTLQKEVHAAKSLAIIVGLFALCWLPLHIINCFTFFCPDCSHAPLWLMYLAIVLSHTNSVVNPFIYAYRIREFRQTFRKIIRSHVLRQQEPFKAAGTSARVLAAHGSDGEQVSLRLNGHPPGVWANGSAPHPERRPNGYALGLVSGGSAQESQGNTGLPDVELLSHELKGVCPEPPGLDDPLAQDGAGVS

Structure (SMILES) | melting point | Ki [1] [nM]
CCOC(=O)C(=O)Nc1nc2c(OC)ccc(-c3ccccc3)c2s1 [Example 47, N-(4-Methoxy-7-phenyl-benzothiazol-2-yl)-oxalamic acid ethyl ester] | 138 to 142 °C | –
COCCN(C)Cc1ccc(C(=O)Nc2nc3c(OC)ccc(-c4ccc(C)s4)c3s2)cc1 [Example 243, 4-{[(2-Methoxy-ethyl)-methyl-amino]-methyl}-N-[4-methoxy-7-(5-methyl-thiophen-2-yl)-benzothiazol-2-yl]-benzamide] | 83 to 90 °C | –
COc1ccc(-c2ccc(C)s2)c2sc(NC(=O)N3CCC(O)CC3)nc12 [Example 266, 4-Hydroxy-piperidine-1-carboxylic acid [4-methoxy-7-(5-methyl-thiophen-2-yl)-benzothiazol-2-yl]-amide] | 197 to 204 °C (dec.) | –

The next lines start with the values.

melting point | Ki [1] [nM] | Structure (SMILES)
58 to 78 °C | 3.16 | COCCN(C)Cc1ccc(C(=O)Nc2nc3c(OC)ccc(-c4cccs4)c3s2)cc1 [Example 240, 4-{[(2-Methoxy-ethyl)-methyl-amino]-methyl}-N-(4-methoxy-7-thiophen-2-yl-benzothiazol-2-yl)-benzamide]
138 °C (dec.) | 2 | COc1ccc(-c2csc(N3CCN(C)CC3)n2)c2sc(NC(=O)c3ccc(F)cc3)nc12 [Example 221, 4-Fluoro-N-{4-methoxy-7-[2-(4-methyl-piperazin-1-yl)-thiazol-4-yl]-benzothiazol-2-yl}-benzamide]
150 °C (dec.) | – | COc1ccc(-c2csc(-c3ccccn3)n2)c2sc(NC(=O)c3ccc(F)cc3)nc12 [Example 222, 4-Fluoro-N-[4-methoxy-7-(2-pyridin-2-yl-thiazol-4-yl)-benzothiazol-2-yl]-benzamide]
242 to 250 °C | – | COc1ccc(-c2cccs2)c2sc(NC(=O)c3ccc(F)cc3)nc12 [Example 220, 4-Fluoro-N-(4-methoxy-7-thiophen-2-yl-benzothiazol-2-yl)-benzamide]
